Experiment [1] concerns the target T1, rat GPR14 (U-II receptor) (Rattus norvegicus, UniProt P49684).
T1 construct: expressed in transfected cells
T1 sequence (P49684 1-386): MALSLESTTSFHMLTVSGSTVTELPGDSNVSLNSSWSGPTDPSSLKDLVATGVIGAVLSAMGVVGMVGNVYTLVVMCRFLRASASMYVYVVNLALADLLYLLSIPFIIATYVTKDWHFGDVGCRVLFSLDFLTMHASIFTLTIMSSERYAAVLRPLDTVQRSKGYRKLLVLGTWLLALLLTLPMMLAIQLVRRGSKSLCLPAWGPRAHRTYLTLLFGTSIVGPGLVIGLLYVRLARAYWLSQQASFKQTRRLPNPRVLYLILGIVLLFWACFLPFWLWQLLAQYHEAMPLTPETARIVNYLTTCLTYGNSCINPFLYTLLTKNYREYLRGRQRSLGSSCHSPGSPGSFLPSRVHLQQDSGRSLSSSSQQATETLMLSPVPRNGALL
In words: Rat UII Calcium Mobilization FLIPR Assay. The following applies: average value for the compound tested; read-out: Rat UII FLIPR Average IC50. The experiment is classed as cell-based. A digest of the protocol: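 CHO cells stably expressing rat U-II receptor, seeded 24 h before assay, were loaded with FLIPR calcium dye in HBSS/20 mM HEPES/0.1% BSA/2.5 mM probenecid, pH 7.4, for 1 h at 37° C. Calcium mobilization then read by FLIPR at 23° C.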
(Calcium assays in cells follow changes in intracellular calcium, usually with a dye or a luminescent sensor.)

Experiment [2] concerns the target T2, Human UII receptor, 6D9 human rhabdomyosarcoma cells (Homo sapiens, UniProt Q9UKP6).
T2 construct: 6D9: isolated by dilution subcloning of RMS13 cells, ATCC® Number: CRL-2061; host or cells: 6D9 human rhabdomyosarcoma cells (subclone of RMS13)
T2 sequence (Q9UKP6 1-389): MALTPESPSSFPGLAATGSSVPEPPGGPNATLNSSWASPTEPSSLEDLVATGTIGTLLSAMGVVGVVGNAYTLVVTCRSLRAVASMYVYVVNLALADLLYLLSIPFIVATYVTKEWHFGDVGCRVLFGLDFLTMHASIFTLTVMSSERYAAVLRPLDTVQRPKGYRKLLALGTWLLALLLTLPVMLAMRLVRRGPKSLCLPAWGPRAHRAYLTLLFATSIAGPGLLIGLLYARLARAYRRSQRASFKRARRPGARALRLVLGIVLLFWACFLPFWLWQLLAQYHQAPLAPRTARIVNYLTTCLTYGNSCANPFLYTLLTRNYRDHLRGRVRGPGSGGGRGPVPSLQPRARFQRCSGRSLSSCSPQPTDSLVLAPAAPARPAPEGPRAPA
As to the kind of experiment: Human UII Calcium Mobilization Assay. The experiment is classed as cell-based. The following applies: average value, FLIPR TETRA, read-out: Human UII Ca^+ Mobilization Average IC50. A digest of the protocol: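 6D9 rhabdomyosarcoma cells loaded 45 min at 37° C with calcium dye (1.25 mM probenecid, 0.01% FBS, HBSS/20 mM HEPES). Antagonist and U-II agonist added at room temperature; FLIPR fluorescence read over 4 min; EC50/IC50 fitted. DMSO ≤0.1% final.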

For experiment [3], the target named is T3, endogenous human UII receptor (Homo sapiens, UniProt Q9UKP6).
T3 sequence (Q9UKP6 1-389): T2 sequence (Q9UKP6 1-389)
In words: Human Radioligand Binding Assay ((^125I)-U-II binding to human skeletal muscle myoblasts).

[4] abbreviates: read-out: Human UII Average Binding Ki, average value, (^125I)-U-II binding to human skeletal muscle myoblasts (HSMM), 25° C., 3 h.

Experimental findings from patent US8193191B2, “Urotensin II receptor antagonists” (Janssen Pharmaceutica N.V., priority 2006, dated 2012) are described below.

Like-named read-outs stand apart in the source and are kept apart here.

In general, IC50 refers to the concentration that inhibits the measured activity by half. A word on the Ki: it is a dissociation constant, usually derived from enzyme kinetics or from competition with a known ligand. Take `COc1ccc([C@@H](CCCNS(=O)(=O)c2sc(C)nc2C)N2C(=O)c3cccc(N4CCN([C@H](C)c5ccccc5)CC4)c3C2=O)cc1OC` [Cpd 124, (R)-2,4-dimethyl-thiazole-5-sulfonic acid (4-(3,4-dimethoxy-phenyl)-4-{1,3-dioxo-4-[4-(1R)-(1-phenyl-ethyl)-piperazin-1-yl]-1,3-dihydro-isoindol-2-yl}-butyl)-amide]: the IC50 in experiment [1] is 28 nM; in experiment [2], 300 nM. Further, in experiment [3], the inhibitory constant (Ki) is 320 nM.
As to `COc1ccc([C@@H](CCCNS(=O)(=O)c2c(C)n[nH]c2C)N2C(=O)c3cccc(N4CCN([C@H](C)c5ccccc5)CC4)c3C2=O)cc1OC` [Cpd 125, (R)-3,5-dimethyl-1H-pyrazole-4-sulfonic acid (4-(3,4-dimethoxy-phenyl)-4-{1,3-dioxo-4-[4-(1R)-(1-phenyl-ethyl)-piperazin-1-yl]-1,3-dihydro-isoindol-2-yl}-butyl)-amide], the results for the IC50 in experiment [1] and in experiment [2] were 11 nM and 47 nM, respectively. Besides, the Ki in experiment [3] (setting [4]) was 13 nM.
Take `COc1ccc([C@@H](CCCNS(=O)(=O)c2cn(C)nc2C)N2C(=O)c3cccc(N4CCN([C@H](C)c5ccccc5)CC4)c3C2=O)cc1OC` [Cpd 128, (R)-1,3-dimethyl-1H-pyrazole-4-sulfonic acid (4-(3,4-dimethoxy-phenyl)-4-{1,3-dioxo-4-[4-(1R)-(1-phenyl-ethyl)-piperazin-1-yl]-1,3-dihydro-isoindol-2-yl}-butyl)-amide]: the IC50 was determined as 8.9 nM in experiment [1] and 280 nM in experiment [2]. Further, the Ki in experiment [3] worked out at 110 nM.
`COc1ccc([C@@H](CCCNS(=O)(=O)O)N2C(=O)c3cccc(N4CCN([C@H](C)c5ccccc5)CC4)c3C2=O)cc1OC` [Cpd 129, (R)-(4-(3,4-dimethoxy-phenyl)-4-{1,3-dioxo-4-[4-(1R)-(1-phenyl-ethyl)-piperazin-1-yl]-1,3-dihydro-isoindol-2-yl}-butyl)-sulfamic acid]: the concentration for half-maximal inhibition (IC50) in experiment [1] is 9.4 nM; in experiment [2] it was 160 nM. Also, the inhibition constant Ki in experiment [3] is 9 nM.
Taken in the same sequence, the figures for `COc1ccc([C@@H](CCCNS(=O)(=O)c2cnn(C)c2C)N2C(=O)c3cccc(N4CCN([C@H](C)c5ccccc5)CC4)c3C2=O)cc1OC` [Cpd 132, (R)-1,5-dimethyl-1H-pyrazole-4-sulfonic acid (4-(3,4-dimethoxy-phenyl)-4-{1,3-dioxo-4-[4-(1R)-(1-phenyl-ethyl)-piperazin-1-yl]-1,3-dihydro-isoindol-2-yl}-butyl)-amide] were 9.8 nM, 340 nM and 72 nM.
In the same order, the values of `COc1ccc([C@@H](CCCNS(=O)(=O)c2cnn(C)c2)N2C(=O)c3cccc(N4CCN([C@H](C)c5ccccc5)CC4)c3C2=O)cc1OC` [Cpd 136, (R)-1-methyl-1H-pyrazole-4-sulfonic acid (4-(3,4-dimethoxy-phenyl)-4-{1,3-dioxo-4-[4-(1R)-(1-phenyl-ethyl)-piperazin-1-yl]-1,3-dihydro-isoindol-2-yl}-butyl)-amide] are 6.2 nM, 360 nM and 61 nM.
`COc1ccc([C@@H](CCCNS(=O)(=O)c2cnoc2C)N2C(=O)c3cccc(N4CCN([C@H](C)c5ccccc5)CC4)c3C2=O)cc1OC` [Cpd 138, (R)-5-methyl-isoxazole-4-sulfonic acid (4-(3,4-dimethoxy-phenyl)-4-{1,3-dioxo-4-[4-(1R)-(1-phenyl-ethyl)-piperazin-1-yl]-1,3-dihydro-isoindol-2-yl}-butyl)-amide]: the values for the IC50 in experiment [1] and in experiment [2] were 20 nM and 130 nM, respectively. Further, the inhibition constant Ki in experiment [3] (setting [4]) stood at 32 nM.
As to `COc1ccc([C@@H](CCCNS(=O)(=O)c2c(C)noc2C)N2C(=O)c3cccc(N4CCN([C@H](C)c5ccccc5)CC4)c3C2=O)cc1OC` [Cpd 139, (R)-3,5-dimethyl-isoxazole-4-sulfonic acid (4-(3,4-dimethoxy-phenyl)-4-{1,3-dioxo-4-[4-(1R)-(1-phenyl-ethyl)-piperazin-1-yl]-1,3-dihydro-isoindol-2-yl}-butyl)-amide], the IC50 in experiment [1] is 29 nM; in experiment [2], 290 nM. Besides, the inhibition constant Ki in experiment [3] was found to be 46 nM.
On to `COc1ccc([C@@H](CCCNS(=O)(=O)c2cn(C)c(C)n2)N2C(=O)c3cccc(N4CCN([C@H](C)c5ccccc5)CC4)c3C2=O)cc1OC` [Cpd 140, (R)-1,2-dimethyl-1H-imidazole-4-sulfonic acid (4-(3,4-dimethoxy-phenyl)-4-{1,3-dioxo-4-[4-(1R)-(1-phenyl-ethyl)-piperazin-1-yl]-1,3-dihydro-isoindol-2-yl}-butyl)-amide], for which the IC50 was determined as 14 nM in experiment [1] and 220 nM in experiment [2]. Further, the Ki in experiment [3] (setting [4]) was determined as 16 nM.
In the case of `COc1ccc([C@@H](CCCNC(=O)c2cnoc2C)N2C(=O)c3cccc(N4CCN([C@H](C)c5ccccc5)CC4)c3C2=O)cc1OC` [Cpd 144, (R)-5-methyl-isoxazole-4-carboxylic acid (4-(3,4-dimethoxy-phenyl)-4-{1,3-dioxo-4-[4-(1R)-(1-phenyl-ethyl)-piperazin-1-yl]-1,3-dihydro-isoindol-2-yl}-butyl)-amide], the half-maximal inhibitory concentration (IC50) in experiment [1] is 11 nM; in experiment [2], 760 nM. The Ki in experiment [3] (setting [4]) stood at 130 nM.
As to `COc1ccc([C@@H](CCCNc2ncccn2)N2C(=O)c3cccc(N4CCN([C@H](C)c5ccccc5)CC4)c3C2=O)cc1OC` [Cpd 145, (R)-2-[1-(3,4-dimethoxy-phenyl)-4-(pyrimidin-2-ylamino)-butyl]-4-[4-(1R)-(1-phenyl-ethyl)-piperazin-1-yl]-isoindole-1,3-dione], the IC50 in experiment [1] was found to be 16 nM; in experiment [2] it was 750 nM. The same molecule showed an inhibition constant (Ki) in experiment [3] of 120 nM.
In the same order, the values of `COc1ccc([C@@H](CCCNC(=N)N)N2C(=O)c3cccc(N4CCN([C@H](C)c5ccccc5)CC4)c3C2=O)cc1OC` [Cpd 146, (R)-N-(4-(3,4-dimethoxy-phenyl)-4-{1,3-dioxo-4-[4-(1R)-(1-phenyl-ethyl)-piperazin-1-yl]-1,3-dihydro-isoindol-2-yl}-butyl)-guanidine] are 29 nM, 2700 nM and 640 nM.
In the same order, the values of `COc1ccc([C@@H](CCCNC(=O)c2cccn2C)N2C(=O)c3cccc(N4CCN([C@H](C)c5ccccc5)CC4)c3C2=O)cc1OC` [Cpd 147, (R)-1-methyl-1H-pyrrole-2-carboxylic acid (4-(3,4-dimethoxy-phenyl)-4-{1,3-dioxo-4-[4-(1R)-(1-phenyl-ethyl)-piperazin-1-yl]-1,3-dihydro-isoindol-2-yl}-butyl)-amide] are 32 nM, 2100 nM and 160 nM.
In the same order, the values of `COc1ccc([C@@H](CCCNC(=O)c2ccc(S(N)(=O)=O)n2C)N2C(=O)c3cccc(N4CCN([C@H](C)c5ccccc5)CC4)c3C2=O)cc1OC` [Cpd 148, (R)-1-methyl-5-sulfamoyl-1H-pyrrole-2-carboxylic acid (4-(3,4-dimethoxy-phenyl)-4-{1,3-dioxo-4-[4-(1R)-(1-phenyl-ethyl)-piperazin-1-yl]-1,3-dihydro-isoindol-2-yl}-butyl)-amide] are 18 nM, 1100 nM and more than 200 nM.
Turning to `COc1ccc([C@@H](CCCNC(=O)[C@H]2CCCN2C(C)=O)N2C(=O)c3cccc(N4CCN([C@H](C)c5ccccc5)CC4)c3C2=O)cc1OC` [Cpd 149, (R)-1-acetyl-pyrrolidine-2-carboxylic acid (R)-(4-(3,4-dimethoxy-phenyl)-4-{1,3-dioxo-4-[4-(1R)-(1-phenyl-ethyl)-piperazin-1-yl]-1,3-dihydro-isoindol-2-yl}-butyl)-amide], the figures for the half-inhibitory concentration (IC50) in experiment [1] and in experiment [2] were 15 nM and 760 nM, respectively. Further, in experiment [3], the Ki amounted to 71 nM.
Consider `COc1ccc([C@@H](CCCNC(=O)c2ccccn2)N2C(=O)c3cccc(N4CCN([C@H](C)c5ccccc5)CC4)c3C2=O)cc1OC` [Cpd 150, (R)-pyridine-2-carboxylic acid (4-(3,4-dimethoxy-phenyl)-4-{1,3-dioxo-4-[4-(1R)-(1-phenyl-ethyl)-piperazin-1-yl]-1,3-dihydro-isoindol-2-yl}-butyl)-amide], for which the IC50 worked out at 38 nM in experiment [1] and 860 nM in experiment [2]. In experiment [3], this molecule displayed an inhibition constant Ki of 74 nM.
